These results are taken from patent US11072616B2, “Cyclic peptides targeting alpha-4-beta-7 integrin” (Zealand Pharma A/S, priority 2015, dated 2021).

For this experiment, the target named is T1, integrin α4β7 (Homo sapiens, UniProt P13612+P26010).
T1 sequence (P13612 34-977 limits assumed): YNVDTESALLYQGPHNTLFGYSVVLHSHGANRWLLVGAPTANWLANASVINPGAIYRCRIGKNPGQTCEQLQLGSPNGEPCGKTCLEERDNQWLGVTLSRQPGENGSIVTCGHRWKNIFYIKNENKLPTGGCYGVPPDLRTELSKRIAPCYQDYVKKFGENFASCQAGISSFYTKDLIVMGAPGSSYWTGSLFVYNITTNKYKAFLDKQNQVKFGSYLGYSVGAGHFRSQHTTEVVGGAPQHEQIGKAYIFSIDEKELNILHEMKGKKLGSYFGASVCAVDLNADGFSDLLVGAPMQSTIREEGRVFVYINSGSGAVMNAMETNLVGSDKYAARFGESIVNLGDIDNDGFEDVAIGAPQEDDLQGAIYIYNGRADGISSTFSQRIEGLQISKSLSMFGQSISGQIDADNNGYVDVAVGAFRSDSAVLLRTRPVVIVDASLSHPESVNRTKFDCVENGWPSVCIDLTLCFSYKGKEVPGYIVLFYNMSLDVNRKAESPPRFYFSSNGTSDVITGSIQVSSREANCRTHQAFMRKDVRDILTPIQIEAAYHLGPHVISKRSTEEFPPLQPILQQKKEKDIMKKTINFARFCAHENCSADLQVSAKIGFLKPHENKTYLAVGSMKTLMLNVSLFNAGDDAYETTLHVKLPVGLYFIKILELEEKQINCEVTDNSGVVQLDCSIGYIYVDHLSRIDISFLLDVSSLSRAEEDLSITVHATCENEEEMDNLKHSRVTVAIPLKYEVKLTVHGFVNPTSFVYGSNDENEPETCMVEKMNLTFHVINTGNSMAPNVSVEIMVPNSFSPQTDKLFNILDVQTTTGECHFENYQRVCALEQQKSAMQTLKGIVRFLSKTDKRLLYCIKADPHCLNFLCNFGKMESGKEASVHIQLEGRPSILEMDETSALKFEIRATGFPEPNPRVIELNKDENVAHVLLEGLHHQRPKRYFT
T1 sequence (P26010 20-723 limits assumed): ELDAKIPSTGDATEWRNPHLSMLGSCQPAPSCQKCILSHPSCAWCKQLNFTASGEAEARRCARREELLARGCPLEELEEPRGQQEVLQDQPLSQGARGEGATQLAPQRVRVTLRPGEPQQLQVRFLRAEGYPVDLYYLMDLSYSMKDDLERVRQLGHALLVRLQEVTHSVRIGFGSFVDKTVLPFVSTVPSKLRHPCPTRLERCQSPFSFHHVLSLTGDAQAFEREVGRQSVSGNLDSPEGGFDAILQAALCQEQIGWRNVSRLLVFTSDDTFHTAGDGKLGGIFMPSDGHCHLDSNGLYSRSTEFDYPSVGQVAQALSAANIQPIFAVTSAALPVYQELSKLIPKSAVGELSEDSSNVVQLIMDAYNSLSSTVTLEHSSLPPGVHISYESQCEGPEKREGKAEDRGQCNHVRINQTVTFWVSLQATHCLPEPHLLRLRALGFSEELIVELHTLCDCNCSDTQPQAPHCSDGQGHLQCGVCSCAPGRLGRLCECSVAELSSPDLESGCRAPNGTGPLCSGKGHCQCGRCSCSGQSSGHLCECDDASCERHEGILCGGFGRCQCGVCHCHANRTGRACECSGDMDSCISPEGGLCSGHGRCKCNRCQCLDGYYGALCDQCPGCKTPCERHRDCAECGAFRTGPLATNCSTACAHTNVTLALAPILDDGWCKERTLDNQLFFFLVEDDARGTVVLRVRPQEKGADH
As to the kind of experiment: Integrin α4β7—MAdCAM-1 competition assay (ELISA). As to conditions: ratio a4b1 ELISA IC50 / a4b7 ELISA IC50. It counts as binding. As to the method:
Integrin α4β7—MAdCAM-1 Competition Assay
The plate was incubated at 4° C. overnight. […] The plate was then incubated for 1 hour at room temperature. The plate was washed three times with wash buffer (50 mM Tris, 100 mM NaCl, 1 mM MnCl2, 0.05% Tween). To each well, 50 μl of compound diluted in assay buffer was added by transfer from a compound serial dilution plate. […] The plate was incubated at room temperature with shaking for 2 hours to reach binding equilibrium. Then the plate was washed three times in wash buffer and 100 μl anti-human IgG Fc specific-horseradish peroxidase (HRP) (Abcam, Ab97225) diluted at 1:2000 in assay buffer was added to each well. The plate was incubated at room temperature for 1 hour under agitation. The plates were then washed three times and 100 μl of 1,3′,5,5′-tetramethylbenxidie (TMB) was then added to each well.

For `C=CCOc1ccc(C[C@@H]2NC(=O)[C@@H]3CCCN3[C@H](C(=O)NC(C)(C)C)[C@H](C)NC(=O)[C@H]([C@@H](C)O)NC(=O)[C@H](CC(=O)O)NC(=O)[C@H](CC(C)C)NC(=O)[C@@H](CO)NC2=O)cc1` [Compound 167], the “Selectivity ELISA” value is given as 13.6. For `CC(C)C[C@@H]1NC(=O)CN(C)C(=O)[C@H](Cc2csc(-c3ccccn3)n2)NC(=O)[C@@H]2CCCN2[C@H](C(=O)NC(C)(C)C)[C@H](C)NC(=O)[C@H]([C@@H](C)O)NC(=O)[C@H](CC(=O)O)NC1=O` [Compound 179], the “Selectivity ELISA” value is reported as 15.2. For the compound `CC(C)C[C@@H]1NC(=O)CN(C)C(=O)[C@H](Cc2csc(-c3cccnc3)n2)NC(=O)[C@@H]2CCCN2[C@H](C(=O)NC(C)(C)C)[C@H](C)NC(=O)[C@H]([C@@H](C)O)NC(=O)[C@H](CC(=O)O)NC1=O` [Compound 181], the “Selectivity ELISA” value was 12.6. Regarding `CC(C)C[C@@H]1NC(=O)C[C@H](CCCCN)NC(=O)[C@H](Cc2ccc(O)cc2)NC(=O)[C@@H]2CCCN2[C@H](C(=O)NC(C)(C)C)[C@H](C)NC(=O)[C@H]([C@@H](C)OCc2ccccc2)NC(=O)[C@H](CC(=O)O)NC1=O` [Compound 200], the “Selectivity ELISA” value stood at 2.6. For the compound `CC(C)C[C@@H]1NC(=O)C[C@H](CCCCN)NC(=O)[C@H](CC2CCCCC2)NC(=O)[C@@H]2CCCN2[C@H](C(=O)NC(C)(C)C)[C@H](C)NC(=O)[C@H]([C@@H](C)O)NC(=O)[C@H](CC(=O)O)NC1=O` [Compound 210], the “Selectivity ELISA” value was 16.0. `CC[C@H](C)[C@@H]1NC(=O)[C@H](CC(=O)O)NC(=O)[C@H](CC(C)C)NC(=O)C[C@H](CCCCN)NC(=O)[C@H](Cc2ccc(CN)cc2)NC(=O)[C@@H]2CCCN2[C@H](C(=O)NC(C)(C)C)[C@H](C)NC1=O` [Compound 215]: the “Selectivity ELISA” value came out at 12.4. As for `CC(C)C[C@@H]1NC(=O)C[C@H](CCCCN)NC[C@H](Cc2ccc(CN)cc2)NC(=O)[C@@H]2CCCN2[C@H](C(=O)NC(C)(C)C)[C@H](C)NC(=O)[C@H]([C@@H](C)O)NC(=O)[C@H](CC(=O)O)NC1=O` [Compound 218], the “Selectivity ELISA” value worked out at 16.5.

Turning to `CC[C@H](C)[C@@H]1NC(=O)[C@H](CC(=O)O)NC(=O)[C@H](CC(C)C)NC(=O)C[C@@H](CCCCN)NC(=O)[C@H](Cc2ccccc2)NC(=O)[C@@H]2CCCN2[C@H](C(=O)NC(C)(C)C)[C@H](C)NC1=O` [Compound 220], the “Selectivity ELISA” value is recorded as 18.2. For `CC[C@H](C)[C@@H]1NC(=O)[C@H](CC(=O)O)NC(=O)[C@H](CC(C)C)NC(=O)C[C@H](CCCCN)NC(=O)[C@@H](Cc2ccc(CN)cc2)NC(=O)[C@@H]2CCCN2[C@H](C(=O)NC(C)(C)C)[C@H](C)NC1=O` [Compound 253] the value was 15.6. For `CC(C)C[C@@H]1NC(=O)C[C@H](CCCCN)NC(=O)[C@H](Cc2ccc(CN)cc2)NC(=O)[C@@H]2CCCN2[C@H](C(=O)NC(C)(C)C)[C@H](C)NC(=O)[C@H](C(C)C)NC(=O)[C@H](CC(=O)O)NC1=O` [Compound 254], the “Selectivity ELISA” value came to 33.0. For `CC(C)C[C@@H]1NC(=O)C[C@H](CCCCN)NC(=O)[C@H](Cc2ccc(I)cc2)NC(=O)[C@@H]2CCCN2[C@H](C(=O)NC(C)(C)C)[C@H](C)NC(=O)[C@H]([C@@H](C)O)NC(=O)[C@H](CC(=O)O)NC1=O` [Compound 260] the value was 58.1; for `CC(C)C[C@@H]1NC(=O)C[C@H](CCCCN)NC(=O)[C@](C)(Cc2ccccc2)NC(=O)[C@@H]2CCCN2[C@H](C(=O)NC(C)(C)C)[C@H](C)NC(=O)[C@H]([C@@H](C)O)NC(=O)[C@H](CC(=O)O)NC1=O` [Compound 263], 23.1. Consider `Cc1cccc(C)c1-c1cccc(C[C@@H]2NC(=O)[C@@H]3CCCN3[C@H](C(=O)NC(C)(C)C)[C@H](C)NC(=O)[C@H]([C@@H](C)O)NC(=O)[C@H](CC(=O)O)NC(=O)[C@H](CC(C)C)NC(=O)C[C@H](CCCCN)NC2=O)c1` [Compound 265], for which the “Selectivity ELISA” value was found to be 46.2. Regarding `Cc1cccc(C)c1-c1ccc(C[C@@H]2NC(=O)[C@@H]3CCCN3[C@H](C(=O)NC(C)(C)C)[C@H](C)NC(=O)[C@H]([C@@H](C)O)NC(=O)[C@H](CC(=O)O)NC(=O)[C@H](CC(C)C)NC(=O)C[C@H](CCCCN)NC2=O)cc1` [Compound 268], the “Selectivity ELISA” value stood at 24.6. The figure for `COc1cccc(Cl)c1-c1ccc(C[C@@H]2NC(=O)[C@@H]3CCCN3[C@H](C(=O)NC(C)(C)C)[C@H](C)NC(=O)[C@H]([C@@H](C)O)NC(=O)[C@H](CC(=O)O)NC(=O)[C@H](CC(C)C)NC(=O)C[C@H](CCCCN)NC2=O)cc1` [Compound 269] is 31.6; for `CC(C)C[C@@H]1NC(=O)C[C@H](CCCCN)NC(=O)[C@H](Cc2ccccc2-c2ccc(N3CCNCC3)cc2)NC(=O)[C@@H]2CCCN2[C@H](C(=O)NC(C)(C)C)[C@H](C)NC(=O)[C@H]([C@@H](C)O)NC(=O)[C@H](CC(=O)O)NC1=O` [Compound 271] it is 34.6; for `Cc1cccc(C)c1-c1ccccc1C[C@@H]1NC(=O)[C@@H]2CCCN2[C@H](C(=O)NC(C)(C)C)[C@H](C)NC(=O)[C@H]([C@@H](C)O)NC(=O)[C@H](CC(=O)O)NC(=O)[C@H](CC(C)C)NC(=O)C[C@H](CCCCN)NC1=O` [Compound 272] it is 58.1. `CC(C)C[C@@H]1NC(=O)C[C@H](CCCCN)NC(=O)C2(CCNCC2)NC(=O)[C@@H]2CCCN2[C@H](C(=O)NC(C)(C)C)[C@H](C)NC(=O)[C@H]([C@@H](C)O)NC(=O)[C@H](CC(=O)O)NC1=O` [Compound 275]: the “Selectivity ELISA” value is 7.7. The figure for `CC[C@@H](C)[C@@H]1NC(=O)[C@H](CC(=O)O)NC(=O)[C@H](CC(C)C)NC(=O)C[C@H](CCCCN)NC(=O)[C@H](Cc2ccc(CN)cc2)NC(=O)[C@@H]2CCCN2[C@H](C(=O)NC(C)(C)C)[C@H](C)NC1=O` [Compound 285] is 6.2. For the compound `CC(C)C[C@@H]1NC(=O)C[C@H](CCCCN)NC(=O)C2(Cc3ccccc3C2)NC(=O)[C@@H]2CCCN2[C@H](C(=O)NC(C)(C)C)[C@H](C)NC(=O)[C@H]([C@@H](C)O)NC(=O)[C@H](CC(=O)O)NC1=O` [Compound 288], the “Selectivity ELISA” value is on record as 12.2.

As for `CC(C)C[C@@H]1NC(=O)C[C@H](CCCCN)NC(=O)CN(Cc2ccccc2)C(=O)[C@@H]2CCCN2[C@H](C(=O)NC(C)(C)C)[C@H](C)NC(=O)[C@H]([C@@H](C)O)NC(=O)[C@H](CC(=O)O)NC1=O` [Compound 296], the “Selectivity ELISA” value was 94.8. On to `CC(C)C[C@@H]1NC(=O)[C@@H]2CCN2C(=O)C[C@H](CCCCN)NC(=O)[C@@H]2CCCN2[C@H](C(=O)NC(C)(C)C)[C@H](C)NC(=O)[C@H]([C@@H](C)O)NC(=O)[C@H](CC(=O)O)NC1=O` [Compound 319], for which the “Selectivity ELISA” value was found to be 4.8. Take `CC(C)C[C@@H]1NC(=O)c2ccc(Br)c(c2)CNC(=O)[C@H](Cc2ccc(O)cc2)NC(=O)[C@@H]2CCCN2[C@H](C(=O)NC(C)(C)C)[C@H](C)NC(=O)[C@H]([C@@H](C)O)NC(=O)[C@H](CC(=O)O)NC1=O` [Compound 336]: the “Selectivity ELISA” value came out at 5.6.
